These results are taken from patent publication US10670605B2, “Cysteine reactive probes and uses thereof” (The Scripps Research Institute, priority 2015, dated 2020).

What all share (experiment): Competitive isoTOP-ABPP, cell lysates
Type in all cases: binding

One experiment addresses XPO1 C528 (O14980) (Homo sapiens, UniProt O14980). To be noted: for R value (DMSO/fragment) / isoTOP-ABPP ratio O14980_C528: 500 μM.
The target in another experiment is T1, PDIA6 C55 (Q15084) (Homo sapiens, UniProt Q15084).
T1 sequence (Q15084 20-440): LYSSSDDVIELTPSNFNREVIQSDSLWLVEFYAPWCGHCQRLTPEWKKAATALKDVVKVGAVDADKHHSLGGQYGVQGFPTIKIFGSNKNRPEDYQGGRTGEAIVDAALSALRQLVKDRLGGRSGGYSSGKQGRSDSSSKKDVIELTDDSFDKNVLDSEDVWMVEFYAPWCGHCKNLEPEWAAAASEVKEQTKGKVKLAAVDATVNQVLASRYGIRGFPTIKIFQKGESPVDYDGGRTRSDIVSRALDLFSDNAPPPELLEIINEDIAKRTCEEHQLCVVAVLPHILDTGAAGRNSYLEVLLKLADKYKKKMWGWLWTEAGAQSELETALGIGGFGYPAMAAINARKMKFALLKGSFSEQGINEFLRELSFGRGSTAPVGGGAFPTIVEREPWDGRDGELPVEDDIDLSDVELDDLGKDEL
Conditions: for R value (DMSO/fragment) / isoTOP-ABPP ratio Q15084_C55: 500 μM; for isoTOP-ABPP reactivity profile ratio, Q15084_C55: 500 μm.

The target in another experiment is UBE2L3 C86 (P68036) (Homo sapiens, UniProt P68036). Conditions: for R value (DMSO/fragment) / isoTOP-ABPP ratio, P68036_C86: 500 μM; for isoTOP-ABPP reactivity profile ratio, P68036_C86: 500 μm.
The target in a further experiment is T2, PDE12 C108 (Q6L8Q7) (Homo sapiens, UniProt Q6L8Q7).
T2 sequence (Q6L8Q7 43-609): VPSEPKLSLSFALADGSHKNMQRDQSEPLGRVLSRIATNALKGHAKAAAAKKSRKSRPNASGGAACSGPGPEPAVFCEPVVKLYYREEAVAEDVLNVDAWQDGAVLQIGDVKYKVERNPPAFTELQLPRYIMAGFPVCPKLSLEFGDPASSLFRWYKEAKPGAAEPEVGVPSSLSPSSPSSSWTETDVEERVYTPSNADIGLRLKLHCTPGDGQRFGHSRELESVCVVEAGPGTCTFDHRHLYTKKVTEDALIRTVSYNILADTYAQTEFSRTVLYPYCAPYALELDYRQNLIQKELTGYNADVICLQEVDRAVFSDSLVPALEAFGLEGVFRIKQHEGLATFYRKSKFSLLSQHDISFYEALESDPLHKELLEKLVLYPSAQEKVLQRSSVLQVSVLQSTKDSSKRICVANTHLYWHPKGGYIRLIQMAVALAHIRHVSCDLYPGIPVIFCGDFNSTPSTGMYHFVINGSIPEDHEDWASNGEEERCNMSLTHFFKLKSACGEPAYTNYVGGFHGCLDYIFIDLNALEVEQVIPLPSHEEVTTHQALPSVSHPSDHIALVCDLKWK

For another experiment, the target named is SAMHD1 C522 (Q9Y3Z3) (Homo sapiens, UniProt Q9Y3Z3).
The target of the next experiment is GNB2L1 C182 (P63244) (Homo sapiens, UniProt P63244). Conditions: for R value (DMSO/fragment) / isoTOP-ABPP ratio, P63244_C182: 500 μM; for isoTOP-ABPP reactivity profile ratio, P63244_C182: 500 μm.
In a further experiment the target is T3, ADA C75 (P00813) (Homo sapiens, UniProt P00813).
T3 sequence (P00813 1-363): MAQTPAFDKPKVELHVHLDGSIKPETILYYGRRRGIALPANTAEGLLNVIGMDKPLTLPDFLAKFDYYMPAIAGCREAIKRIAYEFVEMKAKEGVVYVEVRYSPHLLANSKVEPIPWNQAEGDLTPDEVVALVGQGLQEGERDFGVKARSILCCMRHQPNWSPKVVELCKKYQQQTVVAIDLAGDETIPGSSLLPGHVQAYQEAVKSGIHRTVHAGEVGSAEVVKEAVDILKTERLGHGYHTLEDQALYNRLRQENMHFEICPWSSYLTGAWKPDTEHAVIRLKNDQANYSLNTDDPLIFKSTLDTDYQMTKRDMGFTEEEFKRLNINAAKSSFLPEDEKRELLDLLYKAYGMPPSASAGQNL
Conditions: for isoTOP-ABPP ratio (reactivity profile), P00813_C75: 500 μm in-vitro ramos.
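Wherever isoTOP-ABPP reactivity profile ratio, P63244 C182 is given: Heavy/light ratio DMSO over fragment-treated so higher means more cysteine engagement.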
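Wherever isoTOP-ABPP reactivity profile ratio, P68036 C86 is given: Heavy/light ratio DMSO over fragment-treated so higher means more cysteine engagement.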

Consider `COc1ccc2c(c1)CCCN2C(=O)CCl` [compound 2], for which the “R value (DMSO/fragment)” value was 4.9 at XPO1 C528 (O14980) (in vitro, MDA-MB-231); 3.1 on XPO1 C528 (O14980) (invitro, ramos); 6.3 at PDIA6 C55 (Q15084) (in vitro, MDA-MB-231); 7.1 at PDIA6 C55 (Q15084) (invitro, ramos); 2.8 on UBE2L3 C86 (P68036) (in vitro, MDA-MB-231); 2.5 on UBE2L3 C86 (P68036) (invitro, ramos). In addition, the “R value (DMSO/fragment)” value on PDE12 C108 (Q6L8Q7) (500 μM, invitro, ramos) amounted to 5.1; on SAMHD1 C522 (Q9Y3Z3) (500 μM, invitro, ramos), 4.0; at GNB2L1 C182 (P63244) (in vitro, MDA-MB-231) it was 1.2; on GNB2L1 C182 (P63244) (invitro, ramos) it was 1.2; at ADA C75 (P00813) (500 μM, invitro, ramos), 7.3.

Turning to `Cn1cc(S(=O)(=O)N2CCOCC2)cc1C(=O)NC(=O)CCl` [compound 11], the “isoTOP-ABPP ratio O14980_C528” value stood at 1.0 at XPO1 C528 (O14980) (invitro, 231) and 0.7 at XPO1 C528 (O14980) (invitro, ramos). Also, the “isoTOP-ABPP ratio Q15084_C55” value on PDIA6 C55 (Q15084) (invitro, 231) was 20.0; at PDIA6 C55 (Q15084) (invitro, ramos), 20.0. Besides, the “isoTOP-ABPP ratio, P68036_C86” value on UBE2L3 C86 (P68036) (invitro, ramos) was 1.0. Besides, at PDE12 C108 (Q6L8Q7) (500 μM, invitro, 231), the “isoTOP-ABPP ratio, Q6L8Q7_C108” value is listed as 4.2. The “isoTOP-ABPP ratio, Q9Y3Z3_C522” value on SAMHD1 C522 (Q9Y3Z3) (500 μM, invitro, 231) is given as 2.1. Besides, the “isoTOP-ABPP ratio, P63244_C182” value at GNB2L1 C182 (P63244) (invitro, 231) was 1.0; on GNB2L1 C182 (P63244) (invitro, ramos) it was 1.1. The “isoTOP-ABPP ratio, P00813_C75” value at ADA C75 (P00813) (500 μM, invitro, ramos) is listed as 7.5.

Regarding `COc1ccccc1OCCNC(=O)CCl` [compound 28], the results for the “isoTOP-ABPP ratio (reactivity profile), Q15084_C55” value at PDIA6 C55 (Q15084) (500 μm in-vitro ramos) and on PDIA6 C55 (Q15084) (500 μm in-vitro ramos_231) were 1.5 and 1.1, respectively. On UBE2L3 C86 (P68036) (500 μm in-vitro ramos_231), the “isoTOP-ABPP ratio (reactivity profile), P68036_C86” value amounted to 1.4. Further, the entries for the “isoTOP-ABPP ratio (reactivity profile), Q6L8Q7_C108” value at PDE12 C108 (Q6L8Q7) (500 μm in-vitro ramos) and at PDE12 C108 (Q6L8Q7) (500 μm in-vitro ramos_231) were 1.2 and 1.0, respectively. For the same compound, the “isoTOP-ABPP ratio (reactivity profile), Q9Y3Z3_C522” value at SAMHD1 C522 (Q9Y3Z3) (500 μm in-vitro ramos_231) was determined as 1.0. For the same compound, the “isoTOP-ABPP ratio (reactivity profile), P63244_C182” value is recorded as 1.1 on GNB2L1 C182 (P63244) (500 μm in-vitro ramos) and 1.0 at GNB2L1 C182 (P63244) (500 μm in-vitro ramos_231). Further, the “isoTOP-ABPP ratio (reactivity profile), P00813_C75” value at ADA C75 (P00813) was found to be 0.9.

For `CC(Br)C(=O)Nc1cc(C(F)(F)F)cc(C(F)(F)F)c1` (centres unmarked) [compound 24], the “isoTOP-ABPP ratio (reactivity profile), O14980_C528” value at XPO1 C528 (O14980) (500 μm in-vitro ramos) is given as 20.0. Further, the “isoTOP-ABPP ratio (reactivity profile), Q15084_C55” value at PDIA6 C55 (Q15084) (500 μm in-vitro ramos) was 1.3. The “isoTOP-ABPP ratio (reactivity profile), Q6L8Q7_C108” value at PDE12 C108 (Q6L8Q7) (500 μm in-vitro ramos) was determined as 1.4. At SAMHD1 C522 (Q9Y3Z3) (500 μm in-vitro ramos), the “isoTOP-ABPP ratio (reactivity profile), Q9Y3Z3_C522” value was 1.1. The “isoTOP-ABPP ratio (reactivity profile), P63244_C182” value at GNB2L1 C182 (P63244) (500 μm in-vitro ramos) was determined as 2.6. Further, on ADA C75 (P00813), the “isoTOP-ABPP ratio (reactivity profile), P00813_C75” value was found to be 1.2.

Turning to `COc1cc(NC(=O)CCl)cc(OC)c1` [compound 43], the “isoTOP-ABPP reactivity profile ratio, O14980_C528” value on XPO1 C528 (O14980) (500 μm, in-vitro_ramos_231) is recorded as 4.6. Further, the “isoTOP-ABPP reactivity profile ratio, Q15084_C55” value on PDIA6 C55 (Q15084) (in-vitro_ramos) and at PDIA6 C55 (Q15084) (in-vitro_ramos_231) was 20.0 each time. Moreover, the figures for the “isoTOP-ABPP reactivity profile ratio, P68036_C86” value on UBE2L3 C86 (P68036) (in-vitro_ramos) and at UBE2L3 C86 (P68036) (in-vitro_ramos_231) were 1.7 and 1.1, respectively. For the same compound, the “isoTOP-ABPP reactivity profile ratio, Q9Y3Z3_C522” value at SAMHD1 C522 (Q9Y3Z3) (500 μm, in-vitro_ramos_231) is listed as 2.2. In addition, the “isoTOP-ABPP reactivity profile ratio, P63244_C182” value on GNB2L1 C182 (P63244) (in-vitro_ramos) and on GNB2L1 C182 (P63244) (in-vitro_ramos_231) was 0.9 in each case. Moreover, at ADA C75 (P00813) (500 μm, in-vitro_ramos), the “isoTOP-ABPP reactivity profile ratio, P00813_C75” value is 1.2.

As for `C=CC(=O)N(c1ccccc1)c1ccc(Br)cc1` [compound 5], at XPO1 C528 (O14980) (invitro, 231), the “isoTOP-ABPP ratio O14980_C528” value is 20.0. The “isoTOP-ABPP ratio Q15084_C55” value on PDIA6 C55 (Q15084) (invitro, 231) stood at 0.9; at PDIA6 C55 (Q15084) (invitro, ramos) it was 1.1. For the same compound, the “isoTOP-ABPP ratio, P68036_C86” value on UBE2L3 C86 (P68036) (invitro, ramos) is given as 4.8. The “isoTOP-ABPP ratio, Q9Y3Z3_C522” value on SAMHD1 C522 (Q9Y3Z3) (500 μM, invitro, ramos) came out at 5.4. In addition, the “isoTOP-ABPP ratio, P63244_C182” value at GNB2L1 C182 (P63244) (invitro, 231) is 1.5; at GNB2L1 C182 (P63244) (invitro, ramos) it was 1.4. Moreover, the “isoTOP-ABPP ratio, P00813_C75” value on ADA C75 (P00813) (500 μM, invitro, ramos) is 2.5.
